# What was measured:
# plasma proteins = assay: Plasma protein binding, summary over species; format: in vitro ADME; conditions: species not specified
# [1] = Red blood cell partitioning; format: in vitro ADME; conditions: Compound A compared with beloranib
# [2] = clinical trials in patients with obesity, PWS, or type 2 diabetes; cited from earlier work
# [3] = Pharmacokinetics after intravenous infusion in humans; format: in vivo; conditions: Human, 30-minute IV Infusion, 2.0 mg (0.9 mg/m^2)
SMILES,fraction bound to plasma proteins (plasma proteins),red blood cell partitioning [1],adverse events (AEs) [2],kel [3] [h⁻¹],AUC(0-inf) ([3]; in vivo) [ng·h/mL],clearance ([3]; in vivo) [mL/min/kg],half-life ([3]; in vivo) [h],"Vd ([3]; in vivo, read-out: Vdss) [L/kg]"
CO[C@@H]1[C@H](OC(=O)N2CC(CCN3CCOCC3)C2)CC[C@]2(CO2)[C@H]1[C@@]1(C)O[C@@H]1CC=C(C)C [Compound A],0.3 to 0.7,similar,,,,,,
"CO[C@@H]1[C@H](OC(=O)/C=C/c2ccc(OCCN(C)C)cc2)CC[C@]2(CO2)[C@H]1[C@@]1(C)O[C@@H]1CC=C(C)C [beloranib, reference compound]",,,venous thromboembolism,0.120 ± 0.070,5.82 ± 2.46,64.5,7.06 ± 2.66,25.4 ± 19.2
